PMC6413183, “Regulatory Aspects of the Vacuolar CAT2 Arginine Transporter of S. lycopersicum: Role of Osmotic Pressure and Cations” (International Journal of Molecular Sciences, 2019)
Like-named read-outs stand apart in the source and are kept apart here.

Assays:
SlCAT2 [1] = assay: [3H]Arg uptake in proteoliposomes reconstituted with recombinant SlCAT2; type: biochemical, S. lycopersicum; settings: for effect of intraliposomal cations on [3H]Arg uptake: cation in internal compartment at about vacuolar concentration, K+ and Na+ versus no osmolytes, extent equal to isoosmolar sucrose (osmotic effect); for inhibition of [3H]Arg uptake by external divalent cations / inhibition of [3H]Arg uptake by external monovalent cations: extraliposomal cation at about cytosolic concentration; for inhibition of [3H]Arg uptake by external divalent cations: with respect to sucrose (1.2 mM) used as control of osmolality; for effect of external K+ salts on [3H]Arg uptake: salt in extraliposomal compartment, KCl compared to K-gluconate; for inhibition of [3H]Arg uptake by external monovalent cations: with respect to 40 mM sucrose used as control of osmolality
Procedure: The desalted SlCAT2 was reconstituted by removing the detergent from mixed micelles containing detergent, protein, and phospholipids by incubation with Amberlite XAD-4 in a batch-wise procedure, as previously described. The composition of the initial mixture used for reconstitution (except when differently indicated) was 400 µL of the purified protein (6 µg protein in 0.1% DDM), 80 µL of 10 % TX-100, 120 µL of 10% egg yolk phospholipids in the form of sonicated liposomes prepared as previously described, 15 mM ATP, and 10 mM Tris Hepes pH 7.5 (except where differently indicated) in a final volume of 700 µL. After vortexing, this mixture was incubated with 0.5 g Amberlite XAD-4 under rotatory stirring (1200 rpm) at 23 °C for 40 min in a batchwise procedure as previously pointed out.
Five-hundred-and-fifty microliters of proteoliposomes were passed through a Sephadex G-75 column (0.7 cm diameter × 15 cm height) preequilibrated with 10 mM Tris Hepes pH 7.5. From these columns, 550 µL of proteoliposomes were collected and divided into aliquots (samples) of 100 µL. Transport was started by adding 100 µM of [^3H]Arg to the proteoliposome samples. The pH gradient experiments were performed reconstituting protein in liposome with 10 mM Tris Hepes pH 5.5. After incubation with Amberlite XAD 4 resin, 550 µL of proteoliposomes were passed through a Sephadex G-75 column preequilibrated with 0.5 mM Tris Hepes pH 5.5.
The changes in external/internal osmolality were performed by adding in the extraliposomal/intraliposomal compartment appropriate concentrations of sucrose as indicated in the figure legend.
Transport reaction was stopped by adding 5 mM Pyridoxal Phosphate (PLP); according to the stop inhibitor method, the same inhibitor was added at time zero to control samples (blank). The initial rate was measured in 10 min, i.e., in the linear range of time courses as previously described. The PLP insensitive radioactivity associated with the control samples (blank) was less than 30% with respect to the PLP-sensitive arginine transport.
The experimental values were corrected by subtracting the respective controls. Specific activity was calculated and expressed as nmol/mg at a given time of measurement or as nmol/(mg × min) in the case of initial rate measurement. For calculation of initial rate, transport was measured in 10 min, i.e., within the initial linear part of the uptake. Grafit 5.0.13 software (Erithacus Software, West Sussex, UK) was used to derive IC50 values in inhibition assays and to measure transport rate by first-order rate equation and by a single exponential decay with offset.

SlCAT2 [2] = assay: [3H]Arg efflux from preloaded proteoliposomes reconstituted with SlCAT2; type: biochemical, S. lycopersicum; settings: 0.45 mM Mg2+ in the extraliposomal compartment; proteoliposomes preloaded with 100 µM [3H]Arg
Procedure: Figure 9 Efflux from proteoliposomes reconstituted with SlCAT2. SlCAT2 was purified and reconstituted in proteoliposomes as described in Section 4.4. Arginine efflux was measured at the indicated time, as described in Section 4.5. Internal residual radioactivity was measured as percent with respect to control (time 0), in the absence (open circle) or in the presence (closed circle) of 0.45 mM Mg^2+ in the extraliposomal compartment. Data are plotted using the single exponential equation with offset as described in Section 4.5. Results are the means ± SD from three experiments.
For efflux measurements, proteoliposomes containing 15 mM ATP were preloaded by incubation with 100 µM [^3H]Arg (1 µCi/mL) for 90 min [64]. In both uptake and efflux, transport was stopped by passing 100 µL of each sample through a Sephadex G-75 column (0.6 cm diameter × 8 cm height) in order to separate the external from the internal radioactivity. Samples were eluted with 1 mL 50 mM NaCl and collected in 4 mL of scintillation mixture, vortexed and counted.
The experimental values were corrected by subtracting the respective controls. Specific activity was calculated and expressed as nmol/mg at a given time of measurement or as nmol/(mg × min) in the case of initial rate measurement. For calculation of initial rate, transport was measured in 10 min, i.e., within the initial linear part of the uptake. […]

[3] = cation in extraliposomal compartment (NaCl, K-gluconate, NH4Cl, MgCl2), 100 μM [3H]Arg, 20 min, proteoliposomes containing 200 mM sucrose and 15 mM ATP, pH 7.5, read-out: IC50 for inhibition of [3H]Arg uptake by external cations

In the case of `Nc1ncnc2c1ncn2[C@@H]1O[C@H](COP(=O)(O)OP(=O)([O-])OP(=O)([O-])O)[C@@H](O)[C@H]1O.[Na+].[Na+]` [ATP], the “effect of extraliposomal ATP on [3H]Arg uptake” value (SlCAT2 [1]; ATP (Na+)2 salt added externally, partially due to Na+ and osmolality, 200 mM sucrose and 15 mM ATP inside, pH 7.5, 20 min) is reported as “inhibited”.
`CC(C)CCC[C@@H](C)[C@H]1CC[C@H]2[C@@H]3CC=C4C[C@@H](OC(=O)CCC(=O)O)CC[C@]4(C)[C@H]3CC[C@]12C` [CHS, Cholesteryl hemisuccinate, reference compound] was tested, and the “stimulation of [3H]Arg uptake by CHS in the proteoliposomal membrane” value (SlCAT2 [1]; 1 mg of CHS in 1 mL proteoliposomes, corresponding to 10% of total lipid composition, 20 min, pH 7.5) was “up to 30%”.
For `[Ca+2].[Cl-].[Cl-]` [Ca^2+], the “effect of intraliposomal cations on [3H]Arg uptake” value (from here on “effect of intraliposomal cations”) (SlCAT2 [1]; 15 mM ATP, pH 7.5, 20 min) was “did not exert any significant effect” and the “inhibition of [3H]Arg uptake by external divalent cations” value (SlCAT2 [1]; 20 min, pH 7.5) was “did not exert a significant effect”.
In the case of `O=C([O-])[C@H](O)[C@@H](O)[C@H](O)[C@H](O)CO.[K+]` [K-gluconate], the “effect of external K+ salts on [3H]Arg uptake” value (SlCAT2 [1]; 20 min, pH 7.5) is reported as “no difference between the two K^+ salts”.
With `[Cl-].[K+]` [KCl] the “effect of external K+ salts on [3H]Arg uptake” value (SlCAT2 [1]; 20 min, pH 7.5) was “inhibited”.
In the case of `[K+]` [K^+], the IC50 (SlCAT2 [1]; [3]) is reported as 11.3 ± 1.2 mM, the “effect of intraliposomal cations” value (SlCAT2 [1]; 15 mM ATP, pH 7.5, 20 min) is reported as “activation” and the “inhibition of [3H]Arg uptake by external monovalent cations” value (SlCAT2 [1]; 20 min, pH 7.5) is reported as ~ 40%.
For `[Cl-].[Cl-].[Mg+2]` [Mg^2+], the “inhibition of [3H]Arg uptake by intraliposomal Mg2+ in the absence of internal ATP” value (SlCAT2 [1]; Mg2+ in internal compartment, 200 mM sucrose, no intraliposomal ATP, 20 min) was “virtually disappeared”, the IC50 (SlCAT2 [1]; Mg2+ in internal compartment, with 200 mM sucrose and 15 mM intraliposomal ATP, pH 7.5, 20 min, read-out: IC50 for inhibition of [3H]Arg uptake by intraliposomal Mg2+) was 23 ± 9.9 mM and the IC50 (SlCAT2 [1]; [3]) was 0.42 ± 0.18 mM. The “effect of intraliposomal cations” value (SlCAT2 [1]; 15 mM ATP, pH 7.5, 20 min) was “strong inhibitory effect”, the “inhibition of [3H]Arg uptake by external divalent cations” value (SlCAT2 [1]; 20 min, pH 7.5) was 33% and the “effect of external Mg2+ on [3H]Arg efflux” value (SlCAT2 [2]) was “no, or only a slight, effect”.
For `Cl.N` [NH4^+], the IC50 (SlCAT2 [1]; [3]) was 5.7 ± 1.49 mM, the “effect of intraliposomal cations” value (SlCAT2 [1]; 15 mM ATP, pH 7.5, 20 min) was “did not exert any significant effect” and the “inhibition of [3H]Arg uptake by external monovalent cations” value (SlCAT2 [1]; 20 min, pH 7.5) was ~ 40%.
For `[Cl-].[Na+]` [Na^+], the IC50 (SlCAT2 [1]; [3]) was 10.9 ± 0.8 mM, the “effect of intraliposomal cations” value (SlCAT2 [1]; 15 mM ATP, pH 7.5, 20 min) was “activation” and the “inhibition of [3H]Arg uptake by external monovalent cations” value (SlCAT2 [1]; 20 min, pH 7.5) was ~ 40%.
In the case of `OC[C@H]1O[C@@](CO)(O[C@H]2O[C@H](CO)[C@@H](O)[C@H](O)[C@H]2O)[C@@H](O)[C@@H]1O` [sucrose], the “effect of 1.2 mM external sucrose on transport activity” value (SlCAT2 [1]; 1.2 mM sucrose external, with respect to control without sucrose) is reported as “no difference of activity”, the “effect of 40 mM external sucrose on transport activity” value (SlCAT2 [1]; 40 mM sucrose external, with respect to the condition without sucrose) is reported as “caused a reduction of transport activity” and the “[3H]Arg uptake as percent of the control with external sucrose” value (SlCAT2 [1]; 50 mM sucrose in external compartment, 200 mM sucrose and 15 mM ATP inside, pH 7.5, 10 min) is reported as “about 45%”. The “transport rate of [3H]Arg uptake with external sucrose” value (SlCAT2 [1]; 50 mM sucrose in external compartment, control without external sucrose 0.93 ± 0.2, 10 min, pH 7.5) was 0.51 ± 0.18 nmol/mg/min and the “change of [3H]Arg uptake with intraliposomal sucrose” value (SlCAT2 [1]; intraliposomal osmolality 50 to 175 mOsmol, plateau up to 225 mOsmol, 15 mM ATP, pH 7.5, 10 min) was “increased approximately three times”.
